Laboratory results from patent US20090012595A1, “Therapeutic Drug-Eluting Endoluminal Covering” (priority 2003, published 2009).

Experiment: Paclitaxel release from films into octanol/PBS or octanol/water, 232 nm
Format: physicochemical
Settings: PBS versus water, 0, 4 and 72 hours, 37° C., continuous shaking
Description: Paclitaxel release—Small samples (circular discs, 8 mm) of the Paclitaxel films were placed in a solution of octanol and phosphate buffered saline (PBS) or water at a proportion of 5 ml Octanol and 10 ml PBS (or water). The solution, including the film disc, was shaken continuously at 37° C. for several days. The amount of Paclitaxel in the octanol phase of the solution was measured using a spectrophotometer at 232 nm. Measurements were carried out periodically and the amount of drug released was normalized to baseline values for control films containing no drug.

CC(=O)O[C@H]1C(=O)[C@@]2(C)[C@H]([C@H](OC(=O)c3ccccc3)[C@]3(O)C[C@H](OC(=O)[C@H](O)[C@@H](NC(=O)c4ccccc4)c4ccccc4)C(C)=C1C3(C)C)[C@]1(OC(C)=O)CO[C@@H]1C[C@@H]2O [paclitaxel]
Profile of drug release from films: significantly faster than in water
